Laboratory results from article PMC11938010, “Positive Charge in an Antimalarial Compound Unlocks Broad-Spectrum Antibacterial Activity” (JACS Au, 2025).
Converted amounts (≈) assume the structure as drawn. Like-named read-outs stand apart in the source and are kept apart here.

Key:
[1] = system: Streptococcus pneumoniae (DSM20566); test: In vitro antibacterial activity (MIC), S. pneumoniae; assay type: cell-based; conditions: Streptococcus pneumoniae, DSM20566, read-out: Sp MIC95
[2] = system: Plasmodium falciparum NF54; test: P. falciparum in vitro drug sensitivity assay on asexual blood stage parasites ([3H]-hypoxanthine incorporation); assay type: cell-based; conditions: for IC50: read-out: PfNF54 IC50
Escherichia coli ∆tolC = test: microbe, parasite or virus in culture; assay type: cell-based; conditions: for MIC / inhibition at 50 µM: Escherichia coli; for inhibition at 50 µM: read-out: Ec∆tolC inh. at 50 µM (%)
[3] = system: Staphylococcus aureus ssp. Aureus; test: In vitro antibacterial activity (MIC), S. aureus; assay type: cell-based; conditions: Staphylococcus aureus, read-out: Sa MIC95
in vitro = conditions: human
[4] = system: Mycobacterium tuberculosis (Mtb) strain H37Rv; test: microbe, parasite or virus in culture; assay type: cell-based; conditions: 168 h, 7 days, footnote b: not active at maximum solubility, read-out: MtbH37Rv MIC90
E. coli K12 = test: In vitro antibacterial activity (growth inhibition, OD600), E. coli wild-type; assay type: cell-based; conditions: Escherichia coli
[5] = system: Pseudomonas aeruginosa PA14; test: In vitro antibacterial activity (growth inhibition, OD600), P. aeruginosa; assay type: cell-based
Acinetobacter baumannii = test: In vitro antibacterial activity (growth inhibition, OD600), A. baumannii; assay type: cell-based; conditions: 50 µM, Table S1, with standard deviation, read-out: Ab inh. at 50 µM (%)
[6] = Table S2, with standard deviation
[7] = Plasmodium falciparum, NF54, Table 1 and main text
[8] = K12, 50 µM, Table S1, with standard deviation, read-out: EcK12 inh. at 50 µM (%)
[9] = PA14, 50 μM compound, Table 1 and main text, read-out: PA14 inh. at 50 μM
[10] = PA14, 50 µM, Table S1, with standard deviation, read-out: PA14 inh. at 50 µM (%)

SMILES | MIC ([1]; Table 1 and main text) | MIC [1, 6] | IC50 [2, 7] | IC50 ([2]; Table 1 and main text) | MIC (Escherichia coli ∆tolC; read-out: EcΔtolC MIC95) | inhibition at 50 µM (Escherichia coli ∆tolC) | MIC ([3]; Table 1 and main text) | MIC [3, 6] | CC50 (in vitro; HepG2 CC50, 48 h, MTT) | PfNF54 IC50 ([2]; Table 1 and main text) | MIC90 [4] | inhibition at 50 µM (E. coli K12; [8]) | CC50 (in vitro; HepG2 CC50 (µM), Table S2, with standard deviation) | MIC (Escherichia coli ∆tolC; read-out: Ec∆tolC MIC95 (µM)) | inhibition at 50 µM [5, 9] | inhibition at 50 µM [5, 10] | inhibition at 50 µM (E. coli K12; K12, read-out: EcK12 inh. at 50 μM, 50 μM compound, Table 1 and main text) | EcΔtolC MIC95 (Escherichia coli ∆tolC; Table 1 and main text) | inhibition at 50 µM (Acinetobacter baumannii)
Cc1ccc(NC(=O)c2cc(-c3cc(Cl)ccc3O)[nH]n2)cc1 [Compound 1d] | > 50 µM | > 50 µM | > 2 µM | 2.4 µM | > 50 µM | < 10% | > 50 µM | > 50 µM | > 50 µM |  |  |  |  |  |  |  |  |  | 
O=C(c1cc(-c2cc(Cl)ccc2O)[nH]n1)N1CCOCC1 [Compound 1e] | > 50 µM | > 50 µM | > 5 µM |  | > 50 µM | 23 ± 3% | > 50 µM | > 50 µM | > 50 µM | inactive | > 16 µM |  |  |  |  |  |  |  | 
CC(C)(C)OC(=O)N1CCN(Cc2cccc(NC(=O)c3cc(-c4cc(Cl)ccc4O)[nH]n3)c2)CC1 [Compound 3B] | > 50 µM | > 50 µM | 1 µM |  | > 50 µM |  | > 50 µM | > 50 µM | 25 µM |  |  | < 10% |  |  |  |  |  |  | 
CC(C)(C)OC(=O)N1CCN(Cc2ccc(NC(=O)c3cc(-c4cc(Cl)ccc4O)[nH]n3)cc2)CC1 [Compound 4B] | > 50 µM | > 50 µM | 0.2 µM |  | > 50 µM |  | > 50 µM | > 50 µM | 7 µM |  |  | 17 ± 13% | 7.4 ± 0.7 µM |  |  |  |  |  | 
CC(C)(C)OC(=O)N1CCN(c2cccc(NC(=O)c3cc(-c4cc(Cl)ccc4O)[nH]n3)c2)CC1 [Compound 5B] | > 50 µM | > 50 µM | 0.9 µM |  | > 50 µM | 19 ± 14% | > 50 µM | > 50 µM | > 50 µM |  |  | < 10% |  |  |  |  |  |  | 
CC(C)(C)OC(=O)N1CCN(c2ccc(NC(=O)c3cc(-c4cc(Cl)ccc4O)[nH]n3)cc2)CC1 [Compound 6B] | > 50 µM | > 50 µM | 1.61 µM |  | > 50 µM | < 10% | > 50 µM | > 50 µM | > 50 µM |  |  |  |  |  |  |  |  |  | 
CC(C)(C)OC(=O)NCc1cccc(NC(=O)c2cc(-c3cc(Cl)ccc3O)[nH]n2)c1 [Compound 7B] | > 50 µM | > 50 µM | 1.1 µM |  | > 50 µM | < 10% | > 50 µM | > 50 µM | > 50 µM |  |  | < 10% |  |  |  |  |  |  | 
CC(C)(C)OC(=O)N1CCN=C1NCc1cccc(NC(=O)c2cc(-c3cc(Cl)ccc3O)[nH]n2)c1 [Compound 7D] | 31 µM (≈ 15.8 µg/mL) | 31 ± 11 µM (≈ 15.8 µg/mL) | 0.36 µM |  | 14 µM (≈ 7.15 µg/mL) |  | 24 µM (≈ 12.3 µg/mL) | 24 µM (≈ 12.3 µg/mL) | 19 µM |  | 64 µM (≈ 32.7 µg/mL) |  |  | 14 ± 4 µM (≈ 7.15 µg/mL) | ≥ 45% | 54.8 ± 0.8% | ≥ 45% |  | 
CC(C)(C)OC(=O)N1CCN=C1NCc1ccc(NC(=O)c2cc(-c3cc(Cl)ccc3O)[nH]n2)cc1 [Compound 8D] | > 50 µM | > 50 µM |  |  | > 50 µM | 18.5 ± 0.8% | > 50 µM | > 50 µM | > 50 µM |  | > 64 µM |  |  |  |  |  |  |  | 
CC(C)(C)OC(=O)NCc1cc(NC(=O)c2cc(-c3cc(Cl)ccc3O)[nH]n2)cc(C(F)(F)F)c1 [Compound 9B, tert-Butyl (3-(5-(5-chloro-2-hydroxyphenyl)-1H-pyrazole-3-carboxamido)-5-(trifluoromethyl)benzyl)carbamate] | 30 µM (≈ 15.3 µg/mL) | 30 ± 5 µM (≈ 15.3 µg/mL) | 0.203 µM |  | > 50 µM | 48 ± 8% | > 50 µM | > 50 µM | 5 µM |  | > 64 µM |  |  |  |  |  |  |  | 
CC(C)(C)OC(=O)N1CCN=C1NCc1cc(NC(=O)c2cc(-c3cc(Cl)ccc3O)[nH]n2)cc(C(F)(F)F)c1 [Compound 9D] | 21 µM (≈ 12.2 µg/mL) | 21 ± 9 µM (≈ 12.2 µg/mL) | 0.15 µM |  | 24 µM (≈ 13.9 µg/mL) |  | 12 µM (≈ 6.95 µg/mL) | 12 ± 3 µM (≈ 6.95 µg/mL) | 14 µM |  | 16 µM (≈ 9.26 µg/mL) |  |  | 24 µM (≈ 13.9 µg/mL) | 21% |  |  | 24.0 µM | 81.6 ± 0.6%
CC(C)(C)OC(=O)NCc1ccc(NC(=O)c2cc(-c3cc(Cl)ccc3O)[nH]n2)cc1C(F)(F)F [Compound 10B, tert-Butyl (4-(5-(5-chloro-2-hydroxyphenyl)-1H-pyrazole-3-carboxamido)-2-(trifluoromethyl)benzyl)carbamate] | > 50 µM | > 50 µM | 0.19 µM |  | > 50 µM | < 10% | > 50 µM | > 50 µM | > 50 µM |  |  | < 10% |  |  |  |  |  |  | < 10%
O=C(Nc1ccc(C(F)(F)F)c(N2CCNCC2)c1)c1cc(-c2cc(Cl)ccc2O)[nH]n1 [Compound 13A, 5-(5-Chloro-2-hydroxyphenyl)-N-(3-(piperazin-1-yl)-4-(trifluoromethyl)phenyl)-1H-pyrazole-3-carboxamide] | 29 µM (≈ 13.5 µg/mL) | 29 ± 2 µM (≈ 13.5 µg/mL) | 0.16 µM |  | > 50 µM | 46 ± 5% | > 50 µM | > 50 µM | 8 µM |  | 32 µM (≈ 14.9 µg/mL) |  |  |  |  | < 10% |  |  | < 10%
CC(C)(C)OC(=O)N1CCN(c2cc(NC(=O)c3cc(-c4cc(Cl)ccc4O)[nH]n3)ccc2C(F)(F)F)CC1 [Compound 13B, tert-Butyl 4-(5-(5-(5-chloro-2-hydroxyphenyl)-1H-pyrazole-3-carboxamido)-2-(trifluoromethyl)phenyl)piperazine-1-carboxylate] | > 50 µM |  | 0.342 µM |  | > 50 µM | < 10% | > 50 µM |  | 2.8 µM |  |  |  |  |  |  |  |  |  | 
O=C(c1cc(-c2cc(Cl)ccc2O)[nH]n1)N1CCNCC1 [Compound 14A, (5-(5-Chloro-2-hydroxyphenyl)-1H-pyrazol-3-yl)(piperazin-1-yl)methanone] | > 50 µM | > 50 µM | 3.3 µM |  | > 50 µM | 18 ± 4% | > 50 µM | > 50 µM | > 50 µM | inactive | > 16 µM |  |  |  |  |  |  |  | 
N=C(N)N1CCN(C(=O)c2cc(-c3cc(Cl)ccc3O)[nH]n2)CC1 [Compound 14G] | > 50 µM | > 50 µM | > 5 µM |  | > 50 µM | 18 ± 9% | > 50 µM | > 50 µM | > 50 µM | inactive | > 64 µM |  |  |  |  |  |  |  | 
